{"source": "patent US20260042731A1", "about": "“(2,4-DICHLOROPHENOXY)ACETIC ACID ANALOGS” (CORTEVA AGRISCIENCE LLC, priority 2022, published 2026)", "key": {"[1]": {"tested_on": "weeds ABUTH, AMATA, AMBEL, CHEAL, ERICA", "test": "Postemergence herbicide evaluation, overall average % weed control (ABUTH, AMATA, AMBEL, CHEAL, ERICA)", "assay_type": "in vivo", "settings": "post-emergence, read-out: Overall Ave % Weed Control; for pest or weed control at 280 g/ha: 280 g ae/ha; for pest or weed control at 560 g/ha: 560 g ae/ha"}, "[2]": {"tested_on": "glyphosate resistant Conyza canadensis (L.) (ERICA), horseweed", "test": "Postemergence herbicide evaluation, growth of Conyza canadensis (ERICA)", "assay_type": "in vivo", "settings": "Erigeron canadensis, post-emergence, read-out: Ave. ERICA, percent reduction in plant size relative to the untreated control; for pest or weed control at 280 g/ha: 280 g ae/ha; for pest or weed control at 560 g/ha: 560 g ae/ha"}, "[3]": {"tested_on": "Abutilon theophrasti (ABUTH), velvetleaf", "test": "Postemergence herbicide evaluation, growth of Abutilon theophrasti (ABUTH)", "assay_type": "in vivo", "settings": "Abutilon theophrasti, post-emergence, read-out: AVE. ABUTH, percent reduction in plant size relative to the untreated control; for pest or weed control at 280 g/ha: 280 g ae/ha; for pest or weed control at 560 g/ha: 560 g ae/ha"}, "[4]": {"tested_on": "Amaranthus rudis (AMATA), tall water hemp", "test": "Postemergence herbicide evaluation, growth of Amaranthus rudis (AMATA)", "assay_type": "in vivo", "settings": "Amaranthus tuberculatus, post-emergence, read-out: Ave. AMATA, percent reduction in plant size relative to the untreated control; for pest or weed control at 280 g/ha: 280 g ae/ha; for pest or weed control at 560 g/ha: 560 g ae/ha"}, "[5]": {"test": "Volatility of compounds measured by thermogravimetric analysis (TGA)", "assay_type": "physicochemical"}, "[6]": {"tested_on": "Ambrosia artemisiifolia (AMBEL), common ragweed", "test": "Postemergence herbicide evaluation, growth of Ambrosia artemisiifolia (AMBEL)", "assay_type": "in vivo", "settings": "Ambrosia artemisiifolia, post-emergence, read-out: AVE. AMBEL, percent reduction in plant size relative to the untreated control; for pest or weed control at 280 g/ha: 280 g ae/ha; for pest or weed control at 560 g/ha: 560 g ae/ha"}, "[7]": {"tested_on": "Chenopodium album (CHEAL), common lambsquarters", "test": "Postemergence herbicide evaluation, growth of Chenopodium album (CHEAL)", "assay_type": "in vivo", "settings": "Chenopodium album, post-emergence, read-out: Ave. CHEAL, percent reduction in plant size relative to the untreated control; for pest or weed control at 280 g/ha: 280 g ae/ha; for pest or weed control at 560 g/ha: 560 g ae/ha"}}, "note": "Where two headings read alike, the source gives them in different places.", "data": [{"smiles": "N/C(=N\\OC(=O)COc1ccc(Cl)cc1Cl)c1ccccc1", "note": "[Compound A3, N′-(2-(2,4-Dichlorophenoxy)acetoxy)benzimidamide]", "values": [{"measurement": "pest or weed control at 280 g/ha", "setting": "[1]; 168 h, 7 DAA", "result": 67, "unit": "%"}, {"measurement": "pest or weed control at 560 g/ha", "setting": "[1]; 168 h, 7 DAA", "result": 73, "unit": "%"}, {"measurement": "pest or weed control at 280 g/ha", "setting": "[1]; 336 h, 14 DAA", "result": 75, "unit": "%"}, {"measurement": "pest or weed control at 560 g/ha", "setting": "[1]; 336 h, 14 DAA", "result": 85, "unit": "%"}, {"measurement": "pest or weed control at 280 g/ha", "setting": "[1]; 504 h, 21 DAA", "result": 81, "unit": "%"}, {"measurement": "pest or weed control at 560 g/ha", "setting": "[1]; 504 h, 21 DAA", "result": 83, "unit": "%"}, {"measurement": "pest or weed control at 280 g/ha", "setting": "[2]; 168 h, 7 DAA", "result": 68, "unit": "%"}, {"measurement": "pest or weed control at 560 g/ha", "setting": "[2]; 168 h, 7 DAA", "result": 75, "unit": "%"}, {"measurement": "pest or weed control at 280 g/ha", "setting": "[2]; 336 h, 14 DAA", "result": 85, "unit": "%"}, {"measurement": "pest or weed control at 560 g/ha", "setting": "[2]; 336 h, 14 DAA", "result": 90, "unit": "%"}, {"measurement": "pest or weed control at 280 g/ha", "setting": "[2]; 504 h, 21 DAA", "result": 90, "unit": "%"}, {"measurement": "pest or weed control at 560 g/ha", "setting": "[2]; 504 h, 21 DAA", "result": 95, "unit": "%"}, {"measurement": "pest or weed control at 280 g/ha", "setting": "[3]; 168 h, 7 DAA", "result": 53, "unit": "%"}, {"measurement": "pest or weed control at 560 g/ha", "setting": "[3]; 168 h, 7 DAA", "result": 68, "unit": "%"}, {"measurement": "pest or weed control at 280 g/ha", "setting": "[3]; 336 h, 14 DAA", "result": 55, "unit": "%"}, {"measurement": "pest or weed control at 560 g/ha", "setting": "[3]; 336 h, 14 DAA", "result": 68, "unit": "%"}, {"measurement": "pest or weed control at 280 g/ha", "setting": "[3]; 504 h, 21 DAA", "result": 58, "unit": "%"}, {"measurement": "pest or weed control at 560 g/ha", "setting": "[3]; 504 h, 21 DAA", "result": 72, "unit": "%"}, {"measurement": "pest or weed control at 280 g/ha", "setting": "[4]; 168 h, 7 DAA", "result": 75, "unit": "%"}, {"measurement": "pest or weed control at 560 g/ha", "setting": "[4]; 168 h, 7 DAA", "result": 78, "unit": "%"}, {"measurement": "pest or weed control at 280 g/ha", "setting": "[4]; 336 h, 14 DAA", "result": 75, "unit": "%"}, {"measurement": "pest or weed control at 560 g/ha", "setting": "[4]; 336 h, 14 DAA", "result": 90, "unit": "%"}, {"measurement": "pest or weed control at 280 g/ha", "setting": "[4]; 504 h, 21 DAA", "result": 83, "unit": "%"}, {"measurement": "pest or weed control at 560 g/ha", "setting": "[4]; 504 h, 21 DAA", "result": 70, "unit": "%"}, {"measurement": "TGA Data (rate of weight loss, volatility)", "setting": "[5]", "result": 1, "unit": "µg/min"}, {"measurement": "pest or weed control at 280 g/ha", "setting": "[6]; 168 h, 7 DAA", "result": 63, "unit": "%"}, {"measurement": "pest or weed control at 560 g/ha", "setting": "[6]; 168 h, 7 DAA", "result": 75, "unit": "%"}, {"measurement": "pest or weed control at 280 g/ha", "setting": "[6]; 336 h, 14 DAA", "result": 78, "unit": "%"}, {"measurement": "pest or weed control at 560 g/ha", "setting": "[6]; 336 h, 14 DAA", "result": 95, "unit": "%"}, {"measurement": "pest or weed control at 280 g/ha", "setting": "[6]; 504 h, 21 DAA", "result": 90, "unit": "%"}, {"measurement": "pest or weed control at 560 g/ha", "setting": "[6]; 504 h, 21 DAA", "result": 90, "unit": "%"}, {"measurement": "pest or weed control at 280 g/ha", "setting": "[7]; 168 h, 7 DAA", "result": 75, "unit": "%"}, {"measurement": "pest or weed control at 560 g/ha", "setting": "[7]; 168 h, 7 DAA", "result": 68, "unit": "%"}, {"measurement": "pest or weed control at 280 g/ha", "setting": "[7]; 336 h, 14 DAA", "result": 83, "unit": "%"}, {"measurement": "pest or weed control at 560 g/ha", "setting": "[7]; 336 h, 14 DAA", "result": 83, "unit": "%"}, {"measurement": "pest or weed control at 280 g/ha", "setting": "[7]; 504 h, 21 DAA", "result": 85, "unit": "%"}, {"measurement": "pest or weed control at 560 g/ha", "setting": "[7]; 504 h, 21 DAA", "result": 87, "unit": "%"}]}, {"smiles": "N/C(=N\\OC(=O)COc1ccc(Cl)cc1Cl)c1cccnc1", "note": "[Compound A4, N′-(2-(2,4-Dichlorophenoxy)acetoxy)nicotinimidamide]", "values": [{"measurement": "pest or weed control at 280 g/ha", "setting": "[1]; 168 h, 7 DAA", "result": 58, "unit": "%"}, {"measurement": "pest or weed control at 560 g/ha", "setting": "[1]; 168 h, 7 DAA", "result": 62, "unit": "%"}, {"measurement": "pest or weed control at 280 g/ha", "setting": "[1]; 336 h, 14 DAA", "result": 68, "unit": "%"}, {"measurement": "pest or weed control at 560 g/ha", "setting": "[1]; 336 h, 14 DAA", "result": 76, "unit": "%"}, {"measurement": "pest or weed control at 280 g/ha", "setting": "[1]; 504 h, 21 DAA", "result": 69, "unit": "%"}, {"measurement": "pest or weed control at 560 g/ha", "setting": "[1]; 504 h, 21 DAA", "result": 77, "unit": "%"}, {"measurement": "pest or weed control at 280 g/ha", "setting": "[2]; 168 h, 7 DAA", "result": 60, "unit": "%"}, {"measurement": "pest or weed control at 560 g/ha", "setting": "[2]; 168 h, 7 DAA", "result": 65, "unit": "%"}, {"measurement": "pest or weed control at 280 g/ha", "setting": "[2]; 336 h, 14 DAA", "result": 83, "unit": "%"}, {"measurement": "pest or weed control at 560 g/ha", "setting": "[2]; 336 h, 14 DAA", "result": 85, "unit": "%"}, {"measurement": "pest or weed control at 280 g/ha", "setting": "[2]; 504 h, 21 DAA", "result": 88, "unit": "%"}, {"measurement": "pest or weed control at 560 g/ha", "setting": "[2]; 504 h, 21 DAA", "result": 88, "unit": "%"}, {"measurement": "pest or weed control at 280 g/ha", "setting": "[3]; 168 h, 7 DAA", "result": 35, "unit": "%"}, {"measurement": "pest or weed control at 560 g/ha", "setting": "[3]; 168 h, 7 DAA", "result": 50, "unit": "%"}, {"measurement": "pest or weed control at 280 g/ha", "setting": "[3]; 336 h, 14 DAA", "result": 40, "unit": "%"}, {"measurement": "pest or weed control at 560 g/ha", "setting": "[3]; 336 h, 14 DAA", "result": 58, "unit": "%"}, {"measurement": "pest or weed control at 280 g/ha", "setting": "[3]; 504 h, 21 DAA", "result": 38, "unit": "%"}, {"measurement": "pest or weed control at 560 g/ha", "setting": "[3]; 504 h, 21 DAA", "result": 53, "unit": "%"}, {"measurement": "pest or weed control at 280 g/ha", "setting": "[4]; 168 h, 7 DAA", "result": 75, "unit": "%"}, {"measurement": "pest or weed control at 560 g/ha", "setting": "[4]; 168 h, 7 DAA", "result": 60, "unit": "%"}, {"measurement": "pest or weed control at 280 g/ha", "setting": "[4]; 336 h, 14 DAA", "result": 75, "unit": "%"}, {"measurement": "pest or weed control at 560 g/ha", "setting": "[4]; 336 h, 14 DAA", "result": 73, "unit": "%"}, {"measurement": "pest or weed control at 280 g/ha", "setting": "[4]; 504 h, 21 DAA", "result": 70, "unit": "%"}, {"measurement": "pest or weed control at 560 g/ha", "setting": "[4]; 504 h, 21 DAA", "result": 75, "unit": "%"}, {"measurement": "TGA Data (rate of weight loss, volatility)", "setting": "[5]", "result": 1, "unit": "µg/min"}, {"measurement": "pest or weed control at 280 g/ha", "setting": "[6]; 168 h, 7 DAA", "result": 60, "unit": "%"}, {"measurement": "pest or weed control at 560 g/ha", "setting": "[6]; 168 h, 7 DAA", "result": 68, "unit": "%"}, {"measurement": "pest or weed control at 280 g/ha", "setting": "[6]; 336 h, 14 DAA", "result": 78, "unit": "%"}, {"measurement": "pest or weed control at 560 g/ha", "setting": "[6]; 336 h, 14 DAA", "result": 88, "unit": "%"}, {"measurement": "pest or weed control at 280 g/ha", "setting": "[6]; 504 h, 21 DAA", "result": 88, "unit": "%"}, {"measurement": "pest or weed control at 560 g/ha", "setting": "[6]; 504 h, 21 DAA", "result": 85, "unit": "%"}, {"measurement": "pest or weed control at 280 g/ha", "setting": "[7]; 168 h, 7 DAA", "result": 60, "unit": "%"}, {"measurement": "pest or weed control at 560 g/ha", "setting": "[7]; 168 h, 7 DAA", "result": 68, "unit": "%"}, {"measurement": "pest or weed control at 280 g/ha", "setting": "[7]; 336 h, 14 DAA", "result": 63, "unit": "%"}, {"measurement": "pest or weed control at 560 g/ha", "setting": "[7]; 336 h, 14 DAA", "result": 75, "unit": "%"}, {"measurement": "pest or weed control at 280 g/ha", "setting": "[7]; 504 h, 21 DAA", "result": 63, "unit": "%"}, {"measurement": "pest or weed control at 560 g/ha", "setting": "[7]; 504 h, 21 DAA", "result": 83, "unit": "%"}]}]}
